Laboratory results taken from the kinase profiling compilation of Christmann-Franck et al. (2016).

Columns and labels:
EIF2AK2 (human) = EIF2AK2 (human) (UniProt P19525); assay: IMAP-FP
EIF2AK3 (human) = EIF2AK3 (human) (UniProt Q9NZJ5); assay: IMAP-FP
PKN1 (human) = PKN1 (human) (UniProt Q16512); assay: IMAP-FP
SRPK1 (human) = SRPK1 (human) (UniProt Q96SB4); assay: IMAP-FP
ABL2 (human) = ABL2 (human) (UniProt P42684); assay: Caliper, Mobility shift assay off-chip
AKT3 (human) = AKT3 (human) (UniProt Q9Y243); assay: Caliper, Mobility shift assay off-chip
ALK NPM1 (human) = ALK NPM1 (human) (UniProt P06748+Q9UM73); assay: Caliper, Mobility shift assay off-chip
BLK (human) = BLK (human) (UniProt P51451); assay: Caliper, Mobility shift assay off-chip
CAMK2A (human) = CAMK2A (human) (UniProt Q9UQM7); assay: Caliper, Mobility shift assay off-chip
CHUK (human) = CHUK (human) (UniProt O15111); assay: Caliper, Mobility shift assay off-chip
Sequence of CHUK (human) (O15111 whole entry, looked up): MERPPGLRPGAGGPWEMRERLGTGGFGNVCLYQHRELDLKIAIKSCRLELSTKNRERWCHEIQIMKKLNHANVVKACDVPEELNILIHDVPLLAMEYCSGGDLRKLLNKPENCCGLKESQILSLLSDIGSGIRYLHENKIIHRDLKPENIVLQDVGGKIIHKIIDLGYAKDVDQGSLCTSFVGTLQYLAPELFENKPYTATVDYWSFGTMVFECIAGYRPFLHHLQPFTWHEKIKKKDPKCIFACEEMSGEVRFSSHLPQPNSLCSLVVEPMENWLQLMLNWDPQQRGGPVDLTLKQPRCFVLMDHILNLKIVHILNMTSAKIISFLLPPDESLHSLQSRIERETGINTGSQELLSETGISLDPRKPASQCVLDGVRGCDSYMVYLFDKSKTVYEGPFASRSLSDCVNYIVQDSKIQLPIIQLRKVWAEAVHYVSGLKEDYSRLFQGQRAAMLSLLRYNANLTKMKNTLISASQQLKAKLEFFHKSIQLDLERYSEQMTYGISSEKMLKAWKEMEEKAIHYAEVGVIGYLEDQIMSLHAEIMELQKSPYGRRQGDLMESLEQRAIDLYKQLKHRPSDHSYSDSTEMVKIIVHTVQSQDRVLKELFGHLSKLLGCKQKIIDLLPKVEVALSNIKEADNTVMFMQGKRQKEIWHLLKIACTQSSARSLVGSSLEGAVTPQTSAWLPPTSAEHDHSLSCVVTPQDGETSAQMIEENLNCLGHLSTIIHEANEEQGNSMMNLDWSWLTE

DDR2 (human) = DDR2 (human) (UniProt Q16832); assay: Caliper, Mobility shift assay off-chip
DYRK1A (human) = DYRK1A (human) (UniProt Q13627); assay: Caliper, Mobility shift assay off-chip
EEF2K (human) = EEF2K (human) (UniProt O00418); assay: Caliper, Mobility shift assay off-chip
EPHA1 (human) = EPHA1 (human) (UniProt P21709); assay: Caliper, Mobility shift assay off-chip
Sequence of EPHA1 (human) (P21709 whole entry, looked up): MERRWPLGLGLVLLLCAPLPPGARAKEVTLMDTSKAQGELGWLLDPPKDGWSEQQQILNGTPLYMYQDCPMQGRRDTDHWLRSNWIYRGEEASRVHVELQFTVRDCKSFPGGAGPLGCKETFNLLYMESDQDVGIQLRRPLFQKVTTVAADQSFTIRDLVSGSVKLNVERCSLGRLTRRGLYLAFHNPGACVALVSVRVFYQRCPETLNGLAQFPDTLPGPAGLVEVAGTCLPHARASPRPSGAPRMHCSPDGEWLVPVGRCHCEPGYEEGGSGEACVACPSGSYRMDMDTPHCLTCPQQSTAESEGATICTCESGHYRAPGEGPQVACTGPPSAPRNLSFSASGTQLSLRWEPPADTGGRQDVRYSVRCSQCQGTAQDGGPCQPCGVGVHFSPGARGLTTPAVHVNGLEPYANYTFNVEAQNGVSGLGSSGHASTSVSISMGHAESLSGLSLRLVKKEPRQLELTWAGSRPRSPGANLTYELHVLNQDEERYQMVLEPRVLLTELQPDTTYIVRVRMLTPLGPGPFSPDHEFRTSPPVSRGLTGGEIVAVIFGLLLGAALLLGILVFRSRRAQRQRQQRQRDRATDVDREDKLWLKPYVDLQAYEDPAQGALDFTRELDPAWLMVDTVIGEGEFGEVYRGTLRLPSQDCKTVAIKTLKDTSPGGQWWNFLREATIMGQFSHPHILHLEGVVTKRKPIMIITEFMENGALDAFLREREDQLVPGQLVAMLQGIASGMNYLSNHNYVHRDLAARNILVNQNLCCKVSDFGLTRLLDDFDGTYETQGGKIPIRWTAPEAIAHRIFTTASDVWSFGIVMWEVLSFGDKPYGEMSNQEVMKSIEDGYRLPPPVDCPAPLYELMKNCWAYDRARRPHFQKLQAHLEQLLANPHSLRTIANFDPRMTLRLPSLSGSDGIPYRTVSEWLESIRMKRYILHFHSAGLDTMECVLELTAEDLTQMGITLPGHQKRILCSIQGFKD

FYN (human) = FYN (human) (UniProt P06241); assay: Caliper, Mobility shift assay off-chip
Sequence of FYN (human) (P06241 whole entry, looked up): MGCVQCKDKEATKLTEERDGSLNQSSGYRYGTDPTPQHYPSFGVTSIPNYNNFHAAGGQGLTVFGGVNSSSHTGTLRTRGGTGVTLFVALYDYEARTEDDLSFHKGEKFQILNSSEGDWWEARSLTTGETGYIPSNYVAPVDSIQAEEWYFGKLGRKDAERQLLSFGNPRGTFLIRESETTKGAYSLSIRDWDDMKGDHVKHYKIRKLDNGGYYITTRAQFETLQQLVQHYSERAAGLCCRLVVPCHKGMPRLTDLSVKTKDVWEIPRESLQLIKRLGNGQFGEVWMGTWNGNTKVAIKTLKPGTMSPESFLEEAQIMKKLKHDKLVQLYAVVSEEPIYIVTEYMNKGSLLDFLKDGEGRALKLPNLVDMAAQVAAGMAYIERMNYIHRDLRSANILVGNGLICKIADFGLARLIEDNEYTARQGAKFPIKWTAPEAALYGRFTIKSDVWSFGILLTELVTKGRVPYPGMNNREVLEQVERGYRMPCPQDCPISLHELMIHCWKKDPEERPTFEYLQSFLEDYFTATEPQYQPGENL

IRAK4 (human) = IRAK4 (human) (UniProt Q9NWZ3); assay: Caliper, Mobility shift assay off-chip
LTK (human) = LTK (human) (UniProt P29376); assay: Caliper, Mobility shift assay off-chip; settings: compound 0.2 µM
MARK3 (human) = MARK3 (human) (UniProt P27448); assay: Caliper, Mobility shift assay off-chip
PDGFRA (human) = PDGFRA (human) (UniProt P16234); assay: Caliper, Mobility shift assay off-chip; settings: compound 0.2 µM
PRKAA1 (human) = PRKAA1 (human) (UniProt Q13131); assay: Caliper, Mobility shift assay off-chip
PRKACB (human) = PRKACB (human) (UniProt P22694); assay: Caliper, Mobility shift assay off-chip
PRKCD (human) = PRKCD (human) (UniProt Q05655); assay: Caliper, Mobility shift assay off-chip
PRKCE (human) = PRKCE (human) (UniProt Q02156); assay: Caliper, Mobility shift assay off-chip
PRKCI (human) = PRKCI (human) (UniProt P41743); assay: Caliper, Mobility shift assay off-chip
RET (human) = RET (human) (UniProt P07949); assay: Caliper, Mobility shift assay off-chip
RPS6KA6 KD1 KD2 (human) = RPS6KA6 KD1 KD2 (human) (UniProt Q9UK32); assay: Caliper, Mobility shift assay off-chip
SRMS (human) = SRMS (human) (UniProt Q9H3Y6); assay: Caliper, Mobility shift assay off-chip
SRPK3 (human) = SRPK3 (human) (UniProt Q9UPE1); assay: Caliper, Mobility shift assay off-chip
Sequence of SRPK3 (human) (Q9UPE1 whole entry, looked up): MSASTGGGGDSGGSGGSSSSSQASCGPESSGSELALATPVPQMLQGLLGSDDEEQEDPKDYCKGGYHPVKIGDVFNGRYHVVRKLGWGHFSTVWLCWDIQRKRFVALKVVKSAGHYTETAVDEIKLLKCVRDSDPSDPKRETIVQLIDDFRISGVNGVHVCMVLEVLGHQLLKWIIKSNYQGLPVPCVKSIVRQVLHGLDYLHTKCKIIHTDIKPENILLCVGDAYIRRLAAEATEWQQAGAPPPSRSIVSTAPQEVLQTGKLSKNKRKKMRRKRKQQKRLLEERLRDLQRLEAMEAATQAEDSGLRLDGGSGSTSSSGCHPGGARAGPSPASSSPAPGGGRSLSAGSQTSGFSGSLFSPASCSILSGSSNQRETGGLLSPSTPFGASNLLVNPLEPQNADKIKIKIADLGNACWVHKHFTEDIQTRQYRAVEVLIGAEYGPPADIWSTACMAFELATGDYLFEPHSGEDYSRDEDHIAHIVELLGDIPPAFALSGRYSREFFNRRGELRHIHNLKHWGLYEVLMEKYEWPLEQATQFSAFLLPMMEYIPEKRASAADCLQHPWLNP

STK4 (human) = STK4 (human) (UniProt Q13043); assay: Caliper, Mobility shift assay off-chip
TEK (human) = TEK (human) (UniProt Q02763); assay: Caliper, Mobility shift assay off-chip
TSSK3 (human) = TSSK3 (human) (UniProt Q96PN8); assay: Caliper, Mobility shift assay off-chip
TYRO3 (human) = TYRO3 (human) (UniProt Q06418); assay: Caliper, Mobility shift assay off-chip
Sequence of TYRO3 (human) (Q06418 whole entry, looked up): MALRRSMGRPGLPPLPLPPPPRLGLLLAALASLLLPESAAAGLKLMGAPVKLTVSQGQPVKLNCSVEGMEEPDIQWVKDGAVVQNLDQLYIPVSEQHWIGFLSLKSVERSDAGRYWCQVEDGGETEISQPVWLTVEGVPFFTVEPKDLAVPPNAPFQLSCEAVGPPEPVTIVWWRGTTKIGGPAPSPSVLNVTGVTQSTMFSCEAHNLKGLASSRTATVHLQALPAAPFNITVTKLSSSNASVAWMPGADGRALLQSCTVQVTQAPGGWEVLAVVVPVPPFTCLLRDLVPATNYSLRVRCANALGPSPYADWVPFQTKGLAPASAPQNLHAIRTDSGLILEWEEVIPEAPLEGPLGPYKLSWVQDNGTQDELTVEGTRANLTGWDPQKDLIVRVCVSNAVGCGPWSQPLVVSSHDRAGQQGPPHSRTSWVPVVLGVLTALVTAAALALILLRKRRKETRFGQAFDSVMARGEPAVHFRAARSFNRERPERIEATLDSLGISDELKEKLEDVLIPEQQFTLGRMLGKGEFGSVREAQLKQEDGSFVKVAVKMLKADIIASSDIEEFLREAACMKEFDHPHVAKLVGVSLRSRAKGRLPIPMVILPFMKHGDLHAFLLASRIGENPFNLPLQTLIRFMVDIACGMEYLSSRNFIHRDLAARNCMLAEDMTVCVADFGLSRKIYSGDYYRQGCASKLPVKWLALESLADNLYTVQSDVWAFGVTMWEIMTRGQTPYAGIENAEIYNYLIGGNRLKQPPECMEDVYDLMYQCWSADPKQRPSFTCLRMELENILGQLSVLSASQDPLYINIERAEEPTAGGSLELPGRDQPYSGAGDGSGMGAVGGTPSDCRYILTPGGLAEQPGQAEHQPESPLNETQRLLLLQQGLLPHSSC

WNK1 (human) = WNK1 (human) (UniProt Q9H4A3); assay: Caliper, Mobility shift assay off-chip

Sequence of ABL2 (human) (P42684 whole entry, looked up): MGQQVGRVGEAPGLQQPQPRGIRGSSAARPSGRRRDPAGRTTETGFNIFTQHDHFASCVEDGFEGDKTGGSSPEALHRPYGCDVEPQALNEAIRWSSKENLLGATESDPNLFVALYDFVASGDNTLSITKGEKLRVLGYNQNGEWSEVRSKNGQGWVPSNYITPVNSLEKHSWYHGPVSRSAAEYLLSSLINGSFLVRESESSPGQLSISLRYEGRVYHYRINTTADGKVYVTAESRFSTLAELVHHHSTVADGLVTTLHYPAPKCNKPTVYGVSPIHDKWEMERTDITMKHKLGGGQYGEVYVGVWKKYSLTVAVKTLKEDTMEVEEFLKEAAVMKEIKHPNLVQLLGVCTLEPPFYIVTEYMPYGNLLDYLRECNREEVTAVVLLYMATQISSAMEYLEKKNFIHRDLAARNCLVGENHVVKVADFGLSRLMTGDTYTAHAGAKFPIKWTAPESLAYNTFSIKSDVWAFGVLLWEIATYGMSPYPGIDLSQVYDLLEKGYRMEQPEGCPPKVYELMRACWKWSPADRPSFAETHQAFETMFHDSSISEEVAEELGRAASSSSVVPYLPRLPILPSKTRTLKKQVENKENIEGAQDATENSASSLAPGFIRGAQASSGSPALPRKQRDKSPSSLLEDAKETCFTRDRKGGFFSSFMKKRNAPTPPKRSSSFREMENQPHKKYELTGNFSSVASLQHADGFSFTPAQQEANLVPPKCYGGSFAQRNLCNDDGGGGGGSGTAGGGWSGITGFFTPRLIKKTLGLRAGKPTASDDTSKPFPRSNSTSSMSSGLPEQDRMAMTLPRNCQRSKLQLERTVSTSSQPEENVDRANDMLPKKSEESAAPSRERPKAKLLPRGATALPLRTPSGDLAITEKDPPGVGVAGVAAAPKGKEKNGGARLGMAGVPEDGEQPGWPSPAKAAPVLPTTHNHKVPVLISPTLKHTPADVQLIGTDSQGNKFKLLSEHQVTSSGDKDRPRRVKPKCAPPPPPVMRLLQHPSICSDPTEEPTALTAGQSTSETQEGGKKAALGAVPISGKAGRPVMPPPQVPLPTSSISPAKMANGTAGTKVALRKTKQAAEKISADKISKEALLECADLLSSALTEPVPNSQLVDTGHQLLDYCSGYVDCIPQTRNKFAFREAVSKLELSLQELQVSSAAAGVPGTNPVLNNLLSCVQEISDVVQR

inhibition (EIF2AK2 (human); compound 0.2 µM): 29.1% | inhibition (EIF2AK2 (human); compound 4.0 µM): 88.4% | inhibition (EIF2AK3 (human); compound 0.2 µM): -15% | inhibition (EIF2AK3 (human); compound 4.0 µM): -5.4% | inhibition (PKN1 (human); compound 0.2 µM): -2.2% | inhibition (PKN1 (human); compound 4.0 µM): 57.1% | inhibition (SRPK1 (human); compound 0.2 µM): -0.7% | inhibition (SRPK1 (human); compound 4.0 µM): 39.6% | inhibition (ABL2 (human); compound 0.2 µM): 13.7% | inhibition (ABL2 (human); compound 4.0 µM): 66.6% | inhibition (AKT3 (human); compound 0.2 µM): 2.3% | inhibition (AKT3 (human); compound 4.0 µM): 44.8% | inhibition (ALK NPM1 (human); compound 0.2 µM): 76% | inhibition (ALK NPM1 (human); compound 4.0 µM): 100% | inhibition (BLK (human); compound 0.2 µM): 79.2% | inhibition (BLK (human); compound 4.0 µM): 101% | inhibition (CAMK2A (human); compound 0.2 µM): 24.5% | inhibition (CAMK2A (human); compound 4.0 µM): 89% | inhibition (CHUK (human); compound 0.2 µM): 3% | inhibition (CHUK (human); compound 4.0 µM): 2.9% | inhibition (DDR2 (human); compound 0.2 µM): 55.8% | inhibition (DDR2 (human); compound 4.0 µM): 98% | inhibition (DYRK1A (human); compound 0.2 µM): 23% | inhibition (DYRK1A (human); compound 4.0 µM): 82.1% | inhibition (EEF2K (human); compound 0.2 µM): 2.7% | inhibition (EEF2K (human); compound 4.0 µM): 4% | inhibition (EPHA1 (human); compound 0.2 µM): 8.2% | inhibition (EPHA1 (human); compound 4.0 µM): 66.9% | inhibition (FYN (human); compound 0.2 µM): 45.3% | inhibition (FYN (human); compound 4.0 µM): 93.3% | inhibition (IRAK4 (human); compound 0.2 µM): 35.6% | inhibition (IRAK4 (human); compound 4.0 µM): 90.4% | inhibition (LTK (human)): 69% | inhibition (MARK3 (human); compound 0.2 µM): 77.4% | inhibition (MARK3 (human); compound 4.0 µM): 99% | inhibition (PDGFRA (human)): 100% | inhibition (PRKAA1 (human); compound 0.2 µM): 62.6% | inhibition (PRKAA1 (human); compound 4.0 µM): 98.7% | inhibition (PRKACB (human); compound 0.2 µM): -0.1% | inhibition (PRKACB (human); compound 4.0 µM): 48.3% | inhibition (PRKCD (human); compound 0.2 µM): 0.9% | inhibition (PRKCD (human); compound 4.0 µM): 48.4% | inhibition (PRKCE (human); compound 0.2 µM): 4.4% | inhibition (PRKCE (human); compound 4.0 µM): 11% | inhibition (PRKCI (human); compound 0.2 µM): -2% | inhibition (PRKCI (human); compound 4.0 µM): 7.8% | inhibition (RET (human); compound 0.2 µM): 99.2% | inhibition (RET (human); compound 4.0 µM): 103% | inhibition (RPS6KA6 KD1 KD2 (human); compound 0.2 µM): 80.7% | inhibition (RPS6KA6 KD1 KD2 (human); compound 4.0 µM): 97.8% | inhibition (SRMS (human); compound 0.2 µM): -0.6% | inhibition (SRMS (human); compound 4.0 µM): 24% | inhibition (SRPK3 (human); compound 0.2 µM): 1.1% | inhibition (SRPK3 (human); compound 4.0 µM): 5.1% | inhibition (STK4 (human); compound 0.2 µM): 92.8% | inhibition (STK4 (human); compound 4.0 µM): 103% | inhibition (TEK (human); compound 0.2 µM): -3.6% | inhibition (TEK (human); compound 4.0 µM): 15.3% | inhibition (TSSK3 (human); compound 0.2 µM): 2.6% | inhibition (TSSK3 (human); compound 4.0 µM): -1.3% | inhibition (TYRO3 (human); compound 0.2 µM): 82.2% | inhibition (TYRO3 (human); compound 4.0 µM): 100% | inhibition (WNK1 (human); compound 0.2 µM): 3.2% | inhibition (WNK1 (human); compound 4.0 µM): 4.9%
Structure (SMILES): CCN(CC)CCNC(=O)c1c(C)[nH]c(/C=C2\C(=O)Nc3ccc(F)cc32)c1C
